What was measured:
human CXCR3A = molecular target: T1, human CXCR3A (Homo sapiens, UniProt P49682); experiment: FLIPR assay (CXCL10-induced calcium signal in CHO-K1 cells); type: cell-based; conditions: CHO-K1 cells expressing human CXCR3A coupled to Galpha(16); CXCL10 agonist 20 nM; mean values
T1 construct: expressed in transfected cells; host or cells: CHO-K1
T1 sequence (P49682 1-368): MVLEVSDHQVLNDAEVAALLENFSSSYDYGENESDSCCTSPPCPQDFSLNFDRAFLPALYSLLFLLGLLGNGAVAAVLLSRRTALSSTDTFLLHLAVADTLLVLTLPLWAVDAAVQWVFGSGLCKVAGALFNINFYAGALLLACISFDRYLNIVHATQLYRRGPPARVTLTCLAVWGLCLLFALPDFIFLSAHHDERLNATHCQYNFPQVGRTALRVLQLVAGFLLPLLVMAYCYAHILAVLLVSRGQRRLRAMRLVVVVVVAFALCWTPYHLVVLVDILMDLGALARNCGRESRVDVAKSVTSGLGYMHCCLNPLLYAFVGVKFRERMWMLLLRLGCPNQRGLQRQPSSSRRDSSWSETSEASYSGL
Description: A) FLIPR assay: The bioactivity of compounds is tested in a fluorometric imaging plate reader (FLIPR: Molecular Devices) using engineered CHO-K1 cells expressing the human CXCR3A (GenBank: AY242128) coupled to a G protein (Galpha(16)). Cells are plated the day prior to bioassay in F12 medium supplemented with 10% FBS and G418 and hygromycin antibiotics to maintain recombinant selection. […] Cells are washed free of excess dye and 60 microliter of wash buffer is added. Stock solutions of test compounds are made up at a concentration of 10 mM in DMSO, and serially diluted in dilution buffer to concentrations required for inhibition dose response curves. After a 10 minute incubation period at 37° C., 10 microliters of each compound dilution are transferred from a compound plate to the plate containing the recombinant cells in the FLIPR instrument according to the manufacturer's instructions. Following basal readings, 10 microliter CXCL10 agonist at a concentration of 20 nM (from Peprotech) is added, again using the FLIPR instrument. Changes in fluorescence are monitored before and after addition of the test compounds. Emission peak values above base level after CXCL10 addition are exported after base line subtraction. The program XLfit is used to fit the data to a single site dose response curve and to calculate IC50 values. The calculated IC50 values may fluctuate depending on the daily assay performance. Fluctuations of this kind are known to those skilled in the art.

[1] = Human liver microsome assay (metabolic stability); type: in vitro ADME; conditions: human liver microsomes 0.5 mg/mL, compound 1 μM, 37° C., pH 7.4, NADPH-regenerating system
Description: Incubation with human liver microsomes was performed to assess metabolic stability at a single compound concentration of 1 μM. A 1 μL-aliquot of the compounds stock solutions in DMSO were added to 899 μL of 100 mM phosphate buffer (pH 7.4) containing the liver microsomes at a concentration of 0.5 mg/mL and the mixture was incubated at 37° C. in an Eppendorf thermomixer at 450 rpm. The reaction was initiated by addition of 100 μL of NADPH-regenerating system containing the glucose-6-phosphate dehydrogenase and at the pre-defined time points, 0, 1.5, 2.5, 5, 10, and 15 min, 100 μL of the incubation was transferred in 100 μL of ice-cold methanol to stop the reaction. Samples were centrifuged at 3220 g for 20 min at 4° C. and the supernatants were submitted to LC/MS-MS analysis.
Calculation of intrinsic clearance CLint:
Natural logarithm of remaining amount of compound was plotted as function of time and the slope of the line determined.
Elimination rate constant (k)=−slope
V=volume of incubation/amount of protein

hERG K channel = molecular target: T2, hERG K channel (Homo sapiens, UniProt Q12809); experiment: hERG Q-Patch assay; type: cell-based; conditions: CHO cells expressing hERG, K+ tail current 3 min after application, mean of two or three experiments
T2 construct: host or cells: CHO
T2 sequence (Q12809 whole entry): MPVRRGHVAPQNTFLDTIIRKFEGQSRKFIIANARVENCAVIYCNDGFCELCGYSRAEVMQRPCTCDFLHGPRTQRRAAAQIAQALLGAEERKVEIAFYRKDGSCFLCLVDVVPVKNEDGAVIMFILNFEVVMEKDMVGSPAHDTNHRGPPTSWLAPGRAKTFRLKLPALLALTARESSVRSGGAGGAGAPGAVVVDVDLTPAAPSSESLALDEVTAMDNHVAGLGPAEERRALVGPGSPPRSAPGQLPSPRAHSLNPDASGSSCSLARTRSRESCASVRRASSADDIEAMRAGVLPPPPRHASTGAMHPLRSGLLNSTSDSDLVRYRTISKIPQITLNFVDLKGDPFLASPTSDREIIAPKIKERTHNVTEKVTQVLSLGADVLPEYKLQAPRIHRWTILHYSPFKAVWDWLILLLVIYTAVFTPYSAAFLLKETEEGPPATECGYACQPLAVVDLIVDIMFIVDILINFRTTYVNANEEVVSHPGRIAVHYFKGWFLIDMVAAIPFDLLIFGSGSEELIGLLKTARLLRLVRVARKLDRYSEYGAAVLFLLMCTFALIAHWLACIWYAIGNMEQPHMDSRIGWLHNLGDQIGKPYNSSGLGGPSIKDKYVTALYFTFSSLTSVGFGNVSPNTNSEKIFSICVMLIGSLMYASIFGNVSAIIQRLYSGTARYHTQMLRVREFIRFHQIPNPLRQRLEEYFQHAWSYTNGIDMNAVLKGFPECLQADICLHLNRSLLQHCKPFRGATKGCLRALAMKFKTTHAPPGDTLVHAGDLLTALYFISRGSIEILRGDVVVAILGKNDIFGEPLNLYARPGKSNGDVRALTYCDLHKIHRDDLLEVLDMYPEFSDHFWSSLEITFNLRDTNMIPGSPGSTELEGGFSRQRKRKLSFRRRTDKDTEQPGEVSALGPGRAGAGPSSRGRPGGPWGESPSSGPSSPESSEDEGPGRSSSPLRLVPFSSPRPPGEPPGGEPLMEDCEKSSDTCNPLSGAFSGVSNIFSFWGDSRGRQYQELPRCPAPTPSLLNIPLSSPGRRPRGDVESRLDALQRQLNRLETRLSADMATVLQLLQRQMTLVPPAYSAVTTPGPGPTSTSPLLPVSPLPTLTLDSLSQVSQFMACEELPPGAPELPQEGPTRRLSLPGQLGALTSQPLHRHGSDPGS
Description: B) hERG Q-Patch assay: Compounds are evaluated for block of the hERG K channel using CHO cells stably expressing the hERG gene (accession number U04270, bSys, Witterswil. Switzerland) and the Patch robotic platform (Sophion, Ballerup, Denmark) in single-cell mode at room temperature. […] When the cells are ˜80% confluent (every 2-3 days), they are either split for further culture or used for electrophysiology. […] Cells are kept in suspension medium at 32-35° C. in the QPatch robot until use, at which time aliquots are transferred to the extracellular solution (in mM: NaCl 150; KCl 4; CaCl2 1.2; MgCl2 1; HEPES 10; pH 7.4 with NaOH) containing 0.3% v/v DMSO and applied to the test plates. K^+ currents are measured with the patch-voltage-clamp technique in the whole-cell configuration with the internal solution (in […]: KCl, 140; NaCl, 10; MgCl2, 1; HEPES, 10; EGTA, 5; pH=7.2 with KOH). […] K^+tail currents are produced from a holding voltage of −80 mV by a 500-ms depolarization to +20 mV followed by a 500-ms repolarization to −40 mV; tail current amplitudes are measured at the end of the repolarization to −40 mV. The pulse pattern is repeated every 10 sec during the experiment, baseline K^+ current is measured after 3 min in extracellular solution, test-solution containing compound is then applied, and K^+ current in presence of compound is measured 3 minutes after application to the cells.

IC50 (human CXCR3A) | microsomal CLint at 1 µM [1] | Compound | % block (hERG K channel; concentration 300 nM) | % block (hERG K channel; concentration 3000 nM)
3.6 nM | 4 µL/min/mg | Cc1nc(C)n(CC(=O)N2CCN(c3sc(C(F)(F)F)nc3-c3ccc(C(F)(F)F)nc3)C[C@H]2C)n1 [Example 49, 2-(3,5-Dimethyl-[1,2,4]triazol-1-yl)-1-{(R)-2-methyl-4-[2-trifluoromethyl-4-(6-trifluoromethyl-pyridin-3-yl)-thiazol-5-yl]-piperazin-1-yl}-ethanone] | – | –
2.9 nM | 7 µL/min/mg | Cc1nc(C)n(CC(=O)N2CCN(c3sc(C(F)(F)F)nc3-c3cnc(C4CC4)nc3)C[C@H]2C)n1 [Example 33, 1-{(R)-4-[4-(2-Cyclopropyl-pyrimidin-5-yl)-2-trifluoromethyl-thiazol-5-yl]-2-methyl-piperazin-1-yl}-2-(3,5-dimethyl-[1,2,4]triazol-1-yl)-ethanone] | 4% | 17%
0.6 nM | 1 µL/min/mg | CC[C@@H]1CN(c2sc(C(F)(F)F)nc2-c2cnc(C(F)(F)F)nc2)CCN1C(=O)Cn1nc(C)nc1C [Example 51, 2-(3,5-Dimethyl-[1,2,4]triazol-1-yl)-1-{(R)-2-ethyl-4-[2-trifluoromethyl-4-(2-trifluoromethyl-pyrimidin-5-yl)-thiazol-5-yl]-piperazin-1-yl}-ethanone] | 6% | 18%
– | 11 µL/min/mg | Cc1nc(C)n(CC(=O)N2CCN(c3sc(C(F)(F)F)nc3-c3cnc(C(F)(F)F)nc3)C[C@@H]2C)n1 [Example 50, 2-(3,5-Dimethyl-[1,2,4]triazol-1-yl)-1-{(S)-2-methyl-4-[2-trifluoromethyl-4-(2-trifluoromethyl-pyrimidin-5-yl)-thiazol-5-yl]-piperazin-1-yl}-ethanone] | – | –
9.3 nM | 7 µL/min/mg | Cc1nc(C)n(CC(=O)N2CCN(c3sc(C(F)(F)F)nc3-c3ccc(Cl)cc3)C[C@H]2C)n1 [Example 7, 1-{(R)-4-[4-(4-Chloro-phenyl)-2-trifluoromethyl-thiazol-5-yl]-2-methyl-piperazin-1-yl}-2-(3,5-dimethyl-[1,2,4]triazol-1-yl)-ethanone] | 34% | 88%
5.1 nM | – | Cc1nc(CO)nn1CC(=O)N1CCN(c2sc(C(F)(F)F)nc2-c2cnc(C(F)(F)F)nc2)C[C@H]1C [Example 44, 2-(3-Hydroxymethyl-5-methyl-[1,2,4]triazol-1-yl)-1-{(R)-2-methyl-4-[2-trifluoromethyl-4-(2-trifluoromethyl-pyrimidin-5-yl)-thiazol-5-yl]-piperazin-1-yl}-ethanone] | −3% | −6%
111 nM | – | COc1ccc(-c2nc(C(F)(F)F)sc2N2CCN(C(=O)Cn3nc(C)nc3C)[C@H](C)C2)cc1 [Example 1, 2-(3,5-Dimethyl-[1,2,4]triazol-1-yl)-1-{(R)-4-[4-(4-methoxy-phenyl)-2-trifluoromethyl-thiazol-5-yl]-2-methyl-piperazin-1-yl}-ethanone] | 4% | 13%
2.9 nM | 78 µL/min/mg | CCCc1ncc(-c2nc(C(F)(F)F)sc2N2CCN(C(=O)Cn3nc(C)nc3C)[C@H](C)C2)cn1 [Example 22, 2-(3,5-Dimethyl-[1,2,4]triazol-1-yl)-1-{(R)-2-methyl-4-[4-(2-propyl-pyrimidin-5-yl)-2-trifluoromethyl-thiazol-5-yl]-piperazin-1-yl}-ethanone] | 1% | 7%
3.1 nM | 60 µL/min/mg | CCOc1ncc(-c2nc(C(F)(F)F)sc2N2CCN(C(=O)Cn3nc(CC)nc3C)[C@H](C)C2)cn1 (single isomer, unassigned) [Example 18] | 3% | 13%
5.7 nM | 8 µL/min/mg | CCOc1ncc(-c2nc(C(F)(F)F)sc2N2CCN(C(=O)Cn3nc(C)nc3C)[C@H](C)C2)cn1 [Example 20, 2-(3,5-Dimethyl-[1,2,4]triazol-1-yl)-1-{(R)-4-[4-(2-ethoxy-pyrimidin-5-yl)-2-trifluoromethyl-thiazol-5-yl]-2-methyl-piperazin-1-yl}-ethanone] | 9% | 20%
15 nM | 14 µL/min/mg | Cc1nc(CO)n(CC(=O)N2CCN(c3sc(C(F)(F)F)nc3-c3cnc(C(F)(F)F)nc3)C[C@H]2C)n1 [Example 45, 2-(5-Hydroxymethyl-3-methyl-[1,2,4]triazol-1-yl)-1-{(R)-2-methyl-4-[2-trifluoromethyl-4-(2-trifluoromethyl-pyrimidin-5-yl)-thiazol-5-yl]-piperazin-1-yl}-ethanone] | 0% | 1%

Compound | IC50 (human CXCR3A) | microsomal CLint at 1 µM [1] | % block (hERG K channel; concentration 300 nM) | % block (hERG K channel; concentration 3000 nM)
Cc1nc(C)n(CC(=O)N2CCN(c3sc(C(F)(F)F)nc3-c3cnc(N4CCCC4)nc3)C[C@H]2C)n1 [Example 36, 2-(3,5-Dimethyl-[1,2,4]triazol-1-yl)-1-{(R)-2-methyl-4-[4-(2-pyrrolidin-1-yl-pyrimidin-5-yl)-2-trifluoromethyl-thiazol-5-yl]-piperazin-1-yl}-ethanone] | 1.6 nM | 338 µL/min/mg | 7% | 15%
Cc1nc(C)n(CC(=O)N2CCN(c3sc(C(F)(F)F)nc3-c3cnc(OC(C)C)nc3)C[C@H]2C)n1 [Example 27, 2-(3,5-Dimethyl-[1,2,4]triazol-1-yl)-1-{(R)-4-[4-(2-isopropoxy-pyrimidin-5-yl)-2-trifluoromethyl-thiazol-5-yl]-2-methyl-piperazin-1-yl}-ethanone] | 3.5 nM | 13 µL/min/mg | 2% | 6%
Cc1nc(C)n(CC(=O)N2CCN(c3sc(C(F)(F)F)nc3-c3cnc(OC4CCC4)nc3)C[C@H]2C)n1 [Example 38, 1-{(R)-4-[4-(2-Cyclobutoxy-pyrimidin-5-yl)-2-trifluoromethyl-thiazol-5-yl]-2-methyl-piperazin-1-yl}-2-(3,5-dimethyl-[1,2,4]triazol-1-yl)-ethanone] | 2.3 nM | 51 µL/min/mg | 5% | 11%
CCOc1ccc(-c2nc(C(F)(F)F)sc2N2CCN(C(=O)Cn3nc(C)nc3C)[C@H](C)C2)cn1 [Example 15, 2-(3,5-Dimethyl-[1,2,4]triazol-1-yl)-1-{(R)-4-[4-(6-ethoxy-pyridin-3-yl)-2-trifluoromethyl-thiazol-5-yl]-2-methyl-piperazin-1-yl}-ethanone] | 9.2 nM | 66 µL/min/mg | 1% | 13%
